From patent US20250346592A1 (Celgene Corporation, priority 2022, published 2025) come the findings set out here.

The target in experiment [1] is T1, hPAD4 enzyme (Homo sapiens (Human), UniProt Q9UM07). Kind of experiment: RFMS1 assay (RapidFire mass spectrometry, BAEE substrate). The format is biochemical. The note with it: 5 nM hPAD4, 250 μM BAEE, 30 min preincubation at 37° C., 90 min reaction; read-out: RFMS 1 IC50. In a few lines:
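hPAD4 (5 nM) preincubated 30 min at 37° C. with compound, then 250 μM BAEE for 90 min at 37° C. in pH 7.5 HEPES buffer with 50 μM calcium, 1 mM DTT, 5 μM TPEN. TCA quench, phenyl glyoxal derivatisation; citrulline product measured by RapidFire MS, normalised to internal standard; IC50 values.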

Experiment [2] deals with T1, hPAD4 enzyme. Kind of experiment: RFMS2 assay (RapidFire mass spectrometry, TSTGGRQGSHH peptide substrate). The note with it: 35 nM recombinant human PAD4, 500 μM TSTGGRQGSHH peptide, 30 minutes at room temperature; read-out: RFMS 2 IC50. In kind it is biochemical. Put shortly:
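IC50 derived from RapidFire LC-MS/MS (positive ESI MRM) of substrate versus product after a 30 min room-temperature reaction stopped with 10% formic acid. Reaction contained 35 nM human PAD4, 500 μM peptide, 2 mM CaCl2, 5 mM DTT at pH 7.4, and compounds diluted 3-fold from 20 μM.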

T1 sequence (Q9UM07 whole entry): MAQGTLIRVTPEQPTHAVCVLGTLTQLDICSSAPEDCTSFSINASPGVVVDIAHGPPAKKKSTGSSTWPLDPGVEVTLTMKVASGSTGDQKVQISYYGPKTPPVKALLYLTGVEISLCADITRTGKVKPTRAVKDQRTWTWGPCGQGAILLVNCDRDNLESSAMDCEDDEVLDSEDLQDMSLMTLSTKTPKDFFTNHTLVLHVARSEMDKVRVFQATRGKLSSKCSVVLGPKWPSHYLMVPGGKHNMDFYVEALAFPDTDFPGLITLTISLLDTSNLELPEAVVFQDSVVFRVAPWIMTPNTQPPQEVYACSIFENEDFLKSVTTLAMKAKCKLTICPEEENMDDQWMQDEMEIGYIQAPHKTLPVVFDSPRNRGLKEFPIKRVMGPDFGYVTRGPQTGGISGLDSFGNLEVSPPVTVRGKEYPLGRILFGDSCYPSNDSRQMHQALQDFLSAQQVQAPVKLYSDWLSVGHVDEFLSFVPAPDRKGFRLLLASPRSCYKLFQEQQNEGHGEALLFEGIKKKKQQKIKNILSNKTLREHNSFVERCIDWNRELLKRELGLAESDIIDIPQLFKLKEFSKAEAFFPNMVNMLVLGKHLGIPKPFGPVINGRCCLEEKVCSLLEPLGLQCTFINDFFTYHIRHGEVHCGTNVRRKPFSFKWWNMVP

A word on the IC50: it is the concentration that inhibits the measured activity by half. With `Cn1c(-c2cc3cccc(OCCc4ccno4)c3n2CC2CC2)nc2cc3c(cc21)CCN(C[C@H](N)CF)C3=O` [Example 195, (S)-6-(2-amino-3-fluoropropyl)-2-(1-(cyclopropylmethyl)-7-(2-(isoxazol-5-yl)ethoxy)-1H-indol-2-yl)-1-methyl-1,6,7,8-tetrahydro-5H-imidazo[4,5-g]isoquinolin-5-one], the IC50 was at most 10 nM in experiment [1] and 11 to 100 nM in experiment [2].

On to `Cn1c(-c2cc3cccc(OCCn4ccnc4)c3n2CC2CC2)nc2cc3c(cc21)CCN(C[C@H](N)CF)C3=O` [Example 198, (S)-2-(7-(2-(1H-imidazol-1-yl)ethoxy)-1-(cyclopropylmethyl)-1H-indol-2-yl)-6-(2-amino-3-fluoropropyl)-1-methyl-1,6,7,8-tetrahydro-5H-imidazo[4,5-g]isoquinolin-5-one], for which the results for the half-maximal inhibitory concentration (IC50) in experiment [1] and in experiment [2] were at most 10 nM and 11 to 100 nM, respectively.

Take `Cn1c(-c2cc3cccc(OCCc4c[nH]nn4)c3n2CC2CC2)nc2cc3c(cc21)CCN(C[C@H](N)CF)C3=O` [Example 199, (S)-2-(7-(2-(1H-1,2,3-triazol-4-yl)ethoxy)-1-(cyclopropyl-methyl)-1H-indol-2-yl)-6-(2-amino-3-fluoropropyl)-1-methyl-1,6,7,8-tetrahydro-5H-imidazo[4,5-g]isoquinolin-5-one]: the IC50 in experiment [1] is at most 10 nM; in experiment [2], 11 to 100 nM.

As to `COC(=O)N(C)CCOc1cccc2cc(-c3nc4cc5c(cc4n3C)CCN(C[C@H](N)CF)C5=O)n(CC3CC3)c12` [Example 201, methyl (S)-(2-((2-(6-(2-amino-3-fluoropropyl)-1-methyl-5-oxo-5,6,7,8-tetrahydro-1H-imidazo[4,5-g]isoquinolin-2-yl)-1-(cyclopropylmethyl)-1H-indol-7-yl)oxy)ethyl)(methyl) carbamate], the IC50 in experiment [1] was at most 10 nM; in experiment [2], 101 to 500 nM.

For `Cn1c(-c2cc3cccc(OCCc4cnoc4)c3n2CC2CC2)nc2cc3c(cc21)CCN(C[C@H](N)CF)C3=O` [Example 204, (S)-6-(2-amino-3-fluoropropyl)-2-(1-(cyclopropylmethyl)-7-(2-(isoxazol-4-yl)ethoxy)-1H-indol-2-yl)-1-methyl-1,6,7,8-tetrahydro-5H-imidazo[4,5-g]isoquinolin-5-one], the IC50 in experiment [1] was at most 10 nM; in experiment [2], 11 to 100 nM.

`Cn1c(-c2cc3cccc(OCCO)c3n2CC2CC2)nc2cc3c(cc21)CCN(C[C@H](N)CF)C3=O` [Example 205, (S)-6-(2-amino-3-fluoropropyl)-2-(1-(cyclopropylmethyl)-7-(2-hydroxyethoxy)-1H-indol-2-yl)-1-methyl-1,6,7,8-tetrahydro-5H-imidazo[4,5-g]isoquinolin-5-one]: the results for the concentration for half-maximal inhibition (IC50) in experiment [1] and in experiment [2] were 11 to 100 nM and 101 to 500 nM, respectively.

Consider `Cn1c(-c2cc3cccc(OC[C@@H]4CNC(=O)O4)c3n2CC2CC2)nc2cc3c(cc21)CCN(C[C@H](N)CF)C3=O` [Example 206, (S)-5-(((2-(6-((S)-2-amino-3-fluoropropyl)-1-methyl-5-oxo-5,6,7,8-tetrahydro-1H-imidazo[4,5-g]isoquinolin-2-yl)-1-(cyclopropylmethyl)-1H-indol-7-yl)oxy)methyl)oxazolidin-2-one], for which the IC50 in experiment [1] was at most 10 nM; in experiment [2], 11 to 100 nM.

Take `COC(=O)NCCOc1cccc2cc(-c3nc4cc5c(cc4n3C)CCN(C[C@H](N)CF)C5=O)n(CC3CC3)c12` [Example 207, methyl (S)-(2-((2-(6-(2-amino-3-fluoropropyl)-1-methyl-5-oxo-5,6,7,8-tetrahydro-1H-imidazo[4,5-g]isoquinolin-2-yl)-1-(cyclopropylmethyl)-1H-indol-7-yl)oxy)ethyl)carbamate]: the results for the IC50 in experiment [1] and in experiment [2] were 11 to 100 nM and 101 to 500 nM, respectively.

For `COC(=O)N[C@@H](C)COc1cccc2cc(-c3nc4cc5c(cc4n3C)CCN(C[C@H](N)CF)C5=O)n(CC3CC3)c12` [Example 208, methyl ((S)-1-((2-(6-((S)-2-amino-3-fluoropropyl)-1-methyl-5-oxo-5,6,7,8-tetrahydro-1H-imidazo[4,5-g]isoquinolin-2-yl)-1-(cyclopropylmethyl)-1H-indol-7-yl)oxy)propan-2-yl)carbamate], the IC50 in experiment [1] lay in the range of 11 to 100 nM; in experiment [2], 101 to 500 nM.

With `Cn1c(-c2cc3cccc(OCCn4cnnc4)c3n2CC2CC2)nc2cc3c(cc21)CCN(C[C@H](N)CF)C3=O` [Example 210, (S)-2-(7-(2-(4H-1,2,4-triazol-4-yl)ethoxy)-1-(cyclopropyl-methyl)-1H-indol-2-yl)-6-(2-amino-3-fluoropropyl)-1-methyl-1,6,7,8-tetrahydro-5H-imidazo[4,5-g]isoquinolin-5-one], the IC50 in experiment [1] and in experiment [2] was 11 to 100 nM each time.

For `C[C@@H](COc1cccc2cc(-c3nc4cc5c(cc4n3C)CCN(C[C@H](N)CF)C5=O)n(CC3CC3)c12)n1ccnc1` [Example 212, 2-(7-((S)-2-(1H-imidazol-1-yl)propoxy)-1-(cyclopropylmethyl)-1H-indol-2-yl)-6-((S)-2-amino-3-fluoropropyl)-1-methyl-1,6,7,8-tetrahydro-5H-imidazo[4,5-g]isoquinolin-5-one], the IC50 is at most 10 nM in experiment [1] and 11 to 100 nM in experiment [2].

Regarding `C[C@H](COc1cccc2cc(-c3nc4cc5c(cc4n3C)CCN(C[C@H](N)CF)C5=O)n(CC3CC3)c12)n1ccnc1` [Example 213, 2-(7-((R)-2-(1H-imidazol-1-yl)propoxy)-1-(cyclopropylmethyl)-1H-indol-2-yl)-6-((S)-2-amino-3-fluoropropyl)-1-methyl-1,6,7,8-tetrahydro-5H-imidazo[4,5-g]isoquinolin-5-one], the results for the 50% inhibitory concentration (IC50) in experiment [1] and in experiment [2] were at most 10 nM and 101 to 500 nM, respectively.

`C[C@@H](Cn1ccnc1)Oc1cccc2cc(-c3nc4cc5c(cc4n3C)CCN(C[C@H](N)CF)C5=O)n(CC3CC3)c12` [Example 222, 2-(7-(((S)-1-(1H-imidazol-1-yl)propan-2-yl)oxy)-1-(cyclopropylmethyl)-1H-indol-2-yl)-6-((S)-2-amino-3-fluoropropyl)-1-methyl-1,6,7,8-tetrahydro-5H-imidazo[4,5-g]isoquinolin-5-one]: the IC50 in experiment [1] lay within 11 to 100 nM; in experiment [2], 101 to 500 nM.

With `C[C@H](Cn1ccnc1)Oc1cccc2cc(-c3nc4cc5c(cc4n3C)CCN(C[C@H](N)CF)C5=O)n(CC3CC3)c12` [Example 223, 2-(7-(((R)-1-(1H-imidazol-1-yl)propan-2-yl)oxy)-1-(cyclopropylmethyl)-1H-indol-2-yl)-6-((S)-2-amino-3-fluoropropyl)-1-methyl-1,6,7,8-tetrahydro-5H-imidazo[4,5-g]isoquinolin-5-one], the IC50 in experiment [1] was at most 10 nM; in experiment [2], 101 to 500 nM.

As to `Cn1c(-c2cc3cccc(/C=C/Cn4ccnc4)c3n2CC2CC2)nc2cc3c(cc21)CCN(C[C@H](N)CF)C3=O` [Example 227, (S,E)-2-(7-(3-(1H-imidazol-1-yl)prop-1-en-1-yl)-1-(cyclopropylmethyl)-1H-indol-2-yl)-6-(2-amino-3-fluoropropyl)-1-methyl-1,6,7,8-tetrahydro-5H-imidazo[4,5-g]isoquinolin-5-one], the half-maximal inhibitory concentration (IC50) was at most 10 nM in experiment [1] and 11 to 100 nM in experiment [2].

In the case of `Cn1c(-c2cc3cccc(CCCn4ccnc4)c3n2CC2CC2)nc2cc3c(cc21)CCN(C[C@H](N)CF)C3=O` [Example 228, (S)-2-(7-(3-(1H-imidazol-1-yl)propyl)-1-(cyclopropylmethyl)-1H-indol-2-yl)-6-(2-amino-3-fluoropropyl)-1-methyl-1,6,7,8-tetrahydro-5H-imidazo[4,5-g]isoquinolin-5-one], the half-maximal inhibitory concentration (IC50) is at most 10 nM in experiment [1] and 101 to 500 nM in experiment [2].

As for `CN[C@H](C)CN1CCc2cc3c(cc2C1=O)nc(-c1cc2cccc(OCC4CNC(=O)C4)c2n1CC1CC1)n3C` (stereo partly drawn) [Example 229, 2-(1-(cyclopropylmethyl)-7-((5-oxopyrrolidin-3-yl)methoxy)-1H-indol-2-yl)-1-methyl-6-((R)-2-(methylamino)propyl)-1,6,7,8-tetrahydro-5H-imidazo[4,5-g]isoquinolin-5-one], the values for the IC50 in experiment [1] and in experiment [2] were 501 to 1000 nM and 101 to 500 nM, respectively.

As to `COc1cccc2cc(-c3nc4cc5c(cc4n3C)CCN(C[C@H]3COCCN3)C5=O)n(CC3CC3)c12` [Example 231, (S)-2-(1-(cyclopropylmethyl)-7-methoxy-1H-indol-2-yl)-1-methyl-6-(morpholin-3-ylmethyl)-1,6,7,8-tetrahydro-5H-imidazo[4,5-g]isoquinolin-5-one], the half-inhibitory concentration (IC50) in experiment [1] lay within 101 to 500 nM; in experiment [2], 501 to 1000 nM.

For the compound `COc1cccc2cc(-c3nc4cc5c(cc4n3C)CCN(C[C@H]3COCCN3)C5=O)n(Cc3ncco3)c12` [Example 232, (S)-2-(7-methoxy-1-(oxazol-2-ylmethyl)-1H-indol-2-yl)-1-methyl-6-(morpholin-3-ylmethyl)-1,6,7,8-tetrahydro-5H-imidazo[4,5-g]isoquinolin-5-one], the IC50 in experiment [1] and in experiment [2] was 101 to 500 nM in each case.

Take `Cn1c(-c2cc3cccc(OCCn4cnnc4)c3n2CC2CC2)nc2cc3c(cc21)CCN(C[C@H]1COCCN1)C3=O` [Example 234, 2-[1-(cyclopropylmethyl)-7-[2-(1,2,4-triazol-4-yl)ethoxy]indol-2-yl]-1-methyl-6-[[(3S)-morpholin-3-yl]methyl]-7,8-dihydroimidazo[4,5-g]isoquinolin-5-one]: the IC50 is 11 to 100 nM in experiment [1] and 501 to 1000 nM in experiment [2].
